Measured values: patent publication US9808434B2, “Compound for treating cancer and diabetes” (CITY OF HOPE, priority 2011, dated 2017)

Tests used:
[1] = tested on: NCI-60 human tumor cell lines; test: NCI-60 DTP Human Tumor Cell Line Drug Screening; format: cell-based; conditions: leukemia, NSCLC, colon, CNS, melanoma, ovarian, renal, prostate, breast lines
Excerpt: Moreover, preliminary data from the NCI-60 DTP Human Tumor Cell Line Drug Screening (http://dtp.nci.nih.gov/branches/btb/ivclsp.html) further confirmed the observations on these COH-SR compounds. […] A value of 100 meant no growth inhibition. A value of 20 meant 80% growth inhibition. A value of 0 meant no net growth over the course of the experiment. A value of −40 meant 40% lethality. A value of −100 meant all cells were dead.

3T3-L1 cells [2] = test: Adipocyte differentiation, Oil Red O staining; format: cell-based, mouse; conditions: preadipocytes 7 days in differentiating media (DM) + compound
Method: Two-day post-confluent 3T3-L1 preadipocyte cells were allowed to differentiate for 7 days in the presence of nothing, DM only, DM+ a test compound (COH-SR1, COH-SR2, COH-SR3, COH-SR4, COH-SR7, LR23 or LR59), or DM+ a positive control (TSA, C75, or Apicidin).
(§1) 3T3-L1 preadipocytes cells were treated with differentiating media (DM) with COH-SR4 (1 μM, 3 μM, or 5 μM) or without for 7 days. […] As used in FIG. 9C, U=undifferentiated, D=differentiated with cocktail media.

3T3-L1 cells [3] = test: Intracellular triglyceride contents, AdipoRed Assay; format: cell-based, mouse; conditions: 7 days in DM + compound
Method: Intracellular triglyceride contents were measured using AdipoRed Assay™ and the results were shown in relative fluorescence units (RFU) in FIG. 5.
as §1

[4] = tested on: HMLE breast cancer cell line; test: HMLE viability, DIMSCAN assay; format: cell-based, human; conditions: 3 days, 2-50 μM
Method: The effects of COH-SR compounds on breast cancer cells were investigated. Cells from 4T1 or HMLE breast cancer cell line were seeded in 96-well plates (about 2000 cells/well), allowed to proliferate for one day, treated with a COH-SR compound, doxorubicin, paclitaxel, cisplatin, or nothing (control) at a specific dose (3 wells for each treatment) and assayed for cell viability 3 days after using DIMSCAN assay. COH-SR3, COH-SR4, COH-SR9, doxorubicin, paclitaxel, and cisplatin were used at a dosage of 40 nM, 200 nM, 1 μM, 2 μM, 10 μM, or 50 μM for 4T1 breast cancer cell lines. COH-SR14 was used at a dosage of 40 nM, 200 nM, 1 μM, 2 μM, or 10 μM for 4T1 breast cancer cell lines. COH-SR3, COH-SR4, COH-SR9, doxorubicin, paclitaxel, and cisplatin were used at a dosage of 2 μM, 10 μM, or 50 μM for HMLE breast cancer cell lines. COH-SR14 was used at a dosage of 2 μM, or 10 μM for HMLE breast cancer cell lines.

HL-60 cells [5] = test: Differentiation of HL-60 cells (Giemsa-Wright, NBT, CD11b/CD14); format: cell-based, human; conditions: 48 hours, 2-10 μM
Method: HL-60 cells were incubated with a test compound at various concentrations (2˜10 μM), DMSO, or without any test compound for 48 hours, and then examined for morphologic changes by Giemsa-Wright stain. The results were observed microscopically and shown in FIG. 13 at a magnification of ×400. […] Such results were similar to cells treated with DMSO or all-trans retinoic acid (ATRA), wherein DMSO or ATRA terminally differentiated HL-60 cells into myeloid cells (FIG. 13).
HL-60 cells (2.5×10^5) were treated with or without a test compound for 48 hours and then stained with NBT, wherein positively-stained cells appeared as purple black (FIG. 14A). NBT positive cells were counted and the overall percentage was calculated based on 200 total cells counted for each treatment. Three˜four independent experiments were carried out, and data are shown as mean±SE (FIG. 14B). This measurement of “oxidative burst” by the NBT assay is a well-known and extensively tested functional marker of HL-60 cell differentiation.
HL-60 cells (2.5×10^5) were incubated with a test compound (COH-SR4 or COH-SR9) at a concentration of 0.5 μM, 1 μM, 2 μM, or 3 μM, or without any COH-SR compound for 48 hours and then assessed for the surface expression of CD11b (FIG. 14C) and CD14 (FIG. 14D) by flow cytometry, respectively. Three-four independent experiments were carried out, and data are shown as mean±SE (FIGS. 14C and 14D).

[6] = tested on: fully differentiated adipocytes; test: Dedifferentiation of fully differentiated adipocytes, Oil Red O staining; format: cell-based; conditions: differentiated 7 days, treated additional 3 days
Method: Fully differentiated adipocyte cells were differentiated for 7 days and were treated for additional 3 days with DM+ a test compound (COH-SR3, COH-SR7, or LR59), DM+ a positive control (Apicidin, TSA or C75), DM, or nothing (control).

[7] = tested on: undifferentiated 3T3-L1 cells; test: Preadipocyte viability, MTT assay; format: cell-based, mouse; conditions: 3 days, 2.5-25 μM
Method: Undifferentiated 3T3-LI cells were treated with COH-SR2, COH-SR3, COH-SR4, COH-SR7, LR23 or LR59 for 3 days at a concentration of 2.5 μM, 5 μM, 10 μM, 15 μM, 20 μM, or 25 μM. The cell viability for each treatment was determined by MTT assay (FIG. 7).

HL-60 cells [8] = test: HL-60 cell viability, MTT assay
Method: Three independent experiments were carried out with 3 duplications each, and data are shown as mean±SE.

U251 = test: Glioma ATP viability assay, U251; format: cell-based; conditions: Homo sapiens, U-251, 72 h, Table 2
Method: (§2) Cells of each cell line (U251, U87, PBT-017, PBT018, PBT003 and PBT028) were treated with various concentrations (0˜100 μM) of COH-SR4 for 72 hours. Cell viabilities were determined by ATP viability assays. Data were represented as a ratio to vehicle (DMSO) control, and plotted as mean±SEM (n=12) obtained from 2˜3 experiments (FIG. 34A).
(§3) Cells of each cell line (U87, U251, PBT003 and PVT-017) were treated with various concentrations (0˜100 μM) of COH-SR4 for 72 hours. Cell viabilities were determined by ATP viability assays. Data were represented as a ratio to vehicle (DMSO) control, and plotted as mean±SEM (n=12) obtained from 2-3 experiments (FIG. 34B).
(§4) Cells of each cell line were treated with various concentrations (0˜100 μM) of COH-SR4 or various concentrations (0˜1000 μM) of TMZ for 72 hours. Cell viabilities were determined by ATP viability assays. Data were represented as a ratio to untreated cells as control, and plotted as mean±SEM (n=12) obtained from 2˜3 experiments (FIGS. 43A-B).

PBT-017 = test: Glioma ATP viability assay, PBT-017; format: cell-based; conditions: 72 h, Table 2
Method: as §2, §3, §4

GSTP = biological target: T1, GSTP (Homo sapiens, UniProt P09211); test: GSTP activity towards CDNB in the presence of GSR4; format: biochemical; conditions: 93977 at 0 μM
T1 construct: made in house; host or cells: E. coli BL21 (DE3)
T1 sequence (P09211 whole entry): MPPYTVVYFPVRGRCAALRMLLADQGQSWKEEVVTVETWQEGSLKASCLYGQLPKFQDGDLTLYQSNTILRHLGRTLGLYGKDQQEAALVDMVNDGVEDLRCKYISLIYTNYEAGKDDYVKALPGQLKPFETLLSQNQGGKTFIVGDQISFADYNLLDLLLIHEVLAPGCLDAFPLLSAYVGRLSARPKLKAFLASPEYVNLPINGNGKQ
Method: Furthermore, GSTP activities towards CDNB were assessed in the presence of various concentration of GSR4. The GSTP activities decreased when the concentration of GSR4 increased (Table 3). Thus, […] was a product inhibitor of GSTP with an estimated Ki of less than 5 μM.

## O=C(Nc1ccc(Cl)c(Cl)c1)Nc1ccc(Cl)c(Cl)c1 [COH-SR3, 1,3-bis(3,4-dichlorophenyl)urea]
[1]
  activity in NCI-60 screening: active against
3T3-L1 cells [2]
  differentiation and accumulation of lipid droplets (Oil Red O staining): dose-dependently inhibited differentiation and accumulation of lipid droplets
3T3-L1 cells [3]
  intracellular triglyceride contents (AdipoRed Assay): dose-dependently reduced
[4]
  cytotoxic effects compared with doxorubicin, paclitaxel and cisplatin (FIG. 30): more potent cytotoxic effects
HL-60 cells [5]
  morphologic changes (Giemsa-Wright stain), myeloid differentiation: exhibited cytoplasmic vacuolation, reduced nucleus-to-cytoplasmic ratio, and absence of prominent nucleoli
[6]
  dedifferentiation of fully differentiated adipocytes: induced dedifferentiation of fully differentiated adipocytes
[7]
  growth of undifferentiated preadipocytes (MTT): inhibited growth of undifferentiated 3T3-L1 cells
HL-60 cells [8]; 48 hours, 1-15 μM
  cytotoxicity and cell proliferation: exhibited cytotoxicity and prevented cell proliferation of HL-60 leukemia cells
HL-60 cells [8]; Homo sapiens, HL-60, 48 h
  IC50: < 5 µM

## Cn1nnc2c(C(N)=O)ncn2c1=O [TMZ, temozolomide, reference compound]
U251
  IC50: 371 µM
PBT-017
  IC50: 13 µM

## mono-glutationyl-SR4 [GSR4]
GSTP; [GSR4] 5 μM
  GSTP activity towards CDNB (Kcat [s−1]): 36385 s⁻¹
GSTP; [GSR4] 10 μM
  GSTP activity towards CDNB (Kcat [s−1]): 16115 s⁻¹
